In ChEMBL document CHEMBL1150576, “Two new lactones with mosquito larvicidal activity from three Hortonia species” (2001) one finds LC50 data, which are given here for two molecules.

This assay has as its system Aedes aegypti. Nature of the assay: Larvicidal activity against second instar larvae of Aedes aegypti. The class given is functional.

Molecules are shown by their SMILES. Converted amounts (≈) assume the structure as drawn.

In the case of `C=CCCCCCCCCCCC1=C[C@H](C)OC1=O`, the LC50 (commonly the concentration that kills 50% of the test population) came out at 0.47 µg/mL (≈ 1.78 µM). Take `C#CCCCCCCCCCCC1=C[C@H](C)OC1=O`: the LC50 was found to be 0.41 µg/mL (≈ 1.56 µM).
